In PubChem BioAssay AID248 (DTP/NCI, 2004):
Values joined by “and” are separate entries in the source; they are usually repeats but may differ in a detail not shown here. Equal entries are not always repeated. Inconclusive results and toxic doses are left out. Cut-off read from the data, not from the text of the source: active = T/C of 150% or more; inactive = T/C below 125%. Square brackets hold non-standard residues; d marks the D form. Peptide text beside a SMILES is read from it. * marks the point of attachment. ξ: configuration not given here. Cbz = O=C(OCc1ccccc1)*; ξM = CSCCC(N)C(=O)O

System: L1210 leukemia ip in BDF1 mice, survival T/C
Test: NCI In Vivo Anticancer Drug Screen. Data for tumor model L1210 Leukemia (intraperitoneal) in B6D2F1 (BDF1) mice
Conditions: higher = longer survival
Outline: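 Tumor was transplanted into mice, which were then dosed with test compound or vehicle alone. Survival was recorded for each group, and the treated figure was expressed relative to the control figure.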

[1] = endpoint: mean survival time, dose: 100.0 mg/kg/injection, schedule: Q04DX003 (ip), vehicle: Klucel (hydroxypropylcellulose) (HPC)
[2] = endpoint: mean survival time, dose: 200.0 mg/kg/injection, schedule: Q04DX003 (ip), vehicle: Klucel (hydroxypropylcellulose) (HPC)
[3] = endpoint: mean survival time, dose: 400.0 mg/kg/injection, schedule: Q04DX003 (ip), vehicle: Klucel (hydroxypropylcellulose) (HPC)
[4] = endpoint: mean survival time, dose: 100.0 mg/kg/injection, schedule: Q04DX003 (ip), vehicle: saline with Tween-80
[5] = endpoint: mean survival time, dose: 200.0 mg/kg/injection, schedule: Q04DX003 (ip), vehicle: saline with Tween-80
[6] = endpoint: mean survival time, dose: 400.0 mg/kg/injection, schedule: Q04DX003 (ip), vehicle: saline with Tween-80
[7] = endpoint: mean survival time, dose: 100.0 mg/kg/injection, schedule: Q01DX001 (ip), vehicle: carboxymethylcellulose (CMC)
[8] = endpoint: mean survival time, dose: 200.0 mg/kg/injection, schedule: Q01DX001 (ip), vehicle: carboxymethylcellulose (CMC)
[9] = endpoint: mean survival time, dose: 400.0 mg/kg/injection, schedule: Q01DX001 (ip), vehicle: carboxymethylcellulose (CMC)
[10] = endpoint: mean survival time, dose: 100.0 mg/kg/injection, schedule: Q01DX009 (ip), vehicle: Klucel (hydroxypropylcellulose) (HPC)

Measured: T/C

CCCCCCCC(=O)N1C(C)CCC1C (centres undefined)
inactive: endpoint: mean survival time, dose: 100.0 mg/kg/injection, schedule: Q04DX002 (ip), vehicle: saline 94 % of control | endpoint: mean survival time, dose: 200.0 mg/kg/injection, schedule: Q04DX002 (ip), vehicle: saline 94 % of control | endpoint: mean survival time, dose: 400.0 mg/kg/injection, schedule: Q04DX002 (ip), vehicle: saline 98 % of control

Clc1nc(Cl)c(Nc2ccn[nH]2)nc1Cl
inactive: endpoint: mean survival time, dose: 100.0 mg/kg/injection, schedule: Q01DX009 (ip), vehicle: saline with Tween-80 91 % of control | endpoint: mean survival time, dose: 200.0 mg/kg/injection, schedule: Q01DX009 (ip), vehicle: saline with Tween-80 86 % of control | endpoint: mean survival time, dose: 400.0 mg/kg/injection, schedule: Q01DX009 (ip), vehicle: saline with Tween-80 94 % of control

NCc1ccc(F)cc1
inactive: endpoint: mean survival time, dose: 50.0 mg/kg/injection, schedule: Q01DX009 (ip), vehicle: saline 102 % of control | endpoint: mean survival time, dose: 100.0 mg/kg/injection, schedule: Q01DX009 (ip), vehicle: saline 95 % of control | endpoint: mean survival time, dose: 100.0 mg/kg/injection, schedule: Q04DX003 (ip), vehicle: saline 100 % of control | endpoint: mean survival time, dose: 200.0 mg/kg/injection, schedule: Q01DX009 (ip), vehicle: saline 95 % of control | endpoint: mean survival time, dose: 200.0 mg/kg/injection, schedule: Q04DX003 (ip), vehicle: saline 92 % of control

N/C(N=Nc1ccccc1)=N\[N+](=O)[O-]
inactive: [1] 100 % of control | [2] 105 % of control | [3] 86 % of control

CS(=O)(=O)OC1CCC(OS(C)(=O)=O)CC1 (centres undefined)
inactive: endpoint: mean survival time, dose: 100.0 mg/kg/injection, schedule: Q01DX001 (ip), vehicle: saline with Tween-80 103 % of control | endpoint: mean survival time, dose: 200.0 mg/kg/injection, schedule: Q01DX001 (ip), vehicle: saline with Tween-80 100 % of control | endpoint: mean survival time, dose: 400.0 mg/kg/injection, schedule: Q01DX001 (ip), vehicle: saline with Tween-80 100 % of control

CCCCCCCCCCCCNCCC#N
inactive: endpoint: mean survival time, dose: 100.0 mg/kg/injection, schedule: Q04DX002 (sc), vehicle: olive oil, sesame oil, peanut oil 100 % of control | endpoint: mean survival time, dose: 200.0 mg/kg/injection, schedule: Q04DX002 (sc), vehicle: olive oil, sesame oil, peanut oil 98 % of control | endpoint: mean survival time, dose: 400.0 mg/kg/injection, schedule: Q04DX002 (sc), vehicle: olive oil, sesame oil, peanut oil 98 % of control

COc1cc([C@@H]2c3cc4c(cc3C[C@H]3COC(=O)[C@@H]32)OCO4)cc(OC)c1OC
inactive: endpoint: mean survival time, dose: 3.12 mg/kg/injection, schedule: Q01DX009 (ip), vehicle: saline 94 % of control | endpoint: mean survival time, dose: 6.25 mg/kg/injection, schedule: Q01DX009 (ip), vehicle: saline 109 % of control | endpoint: mean survival time, dose: 12.5 mg/kg/injection, schedule: Q01DX001 (ip), vehicle: saline 115 % of control | endpoint: mean survival time, dose: 12.5 mg/kg/injection, schedule: Q01DX009 (ip), vehicle: saline 110 % of control | endpoint: mean survival time, dose: 25.0 mg/kg/injection, schedule: Q01DX001 (ip), vehicle: saline 115 % of control | endpoint: mean survival time, dose: 25.0 mg/kg/injection, schedule: Q01DX009 (ip), vehicle: saline 116 % of control | endpoint: mean survival time, dose: 45.0 mg/kg/injection, schedule: Q01DX001 (ip), vehicle: saline 123 % of control | endpoint: mean survival time, dose: 50.0 mg/kg/injection, schedule: Q01DX001 (ip), vehicle: other 109 % of control | endpoint: mean survival time, dose: 50.0 mg/kg/injection, schedule: Q01DX001 (ip), vehicle: saline with Tween-80 110 % of control | endpoint: mean survival time, dose: 50.0 mg/kg/injection, schedule: Q01DX001 (ip), vehicle: saline 111 % of control and 117 % of control | endpoint: mean survival time, dose: 50.0 mg/kg/injection, schedule: Q04DX003 (ip), vehicle: saline with Tween-80 116 % of control | endpoint: mean survival time, dose: 100.0 mg/kg/injection, schedule: Q01DX001 (ip), vehicle: other 116 % of control | endpoint: median survival time, dose: 2.5 mg/kg/injection, schedule: Q01DX009 (ip), vehicle: saline 111 % of control | endpoint: median survival time, dose: 5.0 mg/kg/injection, schedule: Q01DX009 (ip), vehicle: saline 122 % of control | endpoint: median survival time, dose: 10.0 mg/kg/injection, schedule: Q01DX009 (ip), vehicle: saline 88 % of control

COc1ccccc1N=Nc1c(O)n(-c2ccc(C)cc2)c(=S)n(-c2ccccc2)c1=O
inactive: endpoint: mean survival time, dose: 50.0 mg/kg/injection, schedule: Q01DX001 (ip), vehicle: Klucel (hydroxypropylcellulose) (HPC) 94 % of control | endpoint: mean survival time, dose: 100.0 mg/kg/injection, schedule: Q01DX001 (ip), vehicle: Klucel (hydroxypropylcellulose) (HPC) 87 % of control | endpoint: mean survival time, dose: 200.0 mg/kg/injection, schedule: Q01DX001 (ip), vehicle: Klucel (hydroxypropylcellulose) (HPC) 89 % of control

COC(=O)C(CCSC)NC(=O)CNC(=O)CNC(=O)OCc1ccccc1 (stereo not drawn) (Cbz-Gly-Gly-[ξM]-OMe)
inactive: [4] 106 % of control | [5] 101 % of control | [6] 95 % of control

CCCCO[Si](C)(C)CCl
inactive: endpoint: mean survival time, dose: 50.0 mg/kg/injection, schedule: Q01DX001 (ip), vehicle: carboxymethylcellulose (CMC) 101 % of control | [7] 101 % of control | [8] 106 % of control | [9] 97 % of control

Nc1ncnc2c1ncn2C1OC(CO)C(O)C1O.[Cl][Pt][Cl] (centres undefined)
inactive: endpoint: mean survival time, dose: 100.0 mg/kg/injection, schedule: Q01DX009 (ip), vehicle: water 97 % of control | endpoint: mean survival time, dose: 100.0 mg/kg/injection, schedule: Q04DX003 (ip), vehicle: water 94 % of control | endpoint: mean survival time, dose: 200.0 mg/kg/injection, schedule: Q01DX009 (ip), vehicle: water 103 % of control | endpoint: mean survival time, dose: 200.0 mg/kg/injection, schedule: Q04DX003 (ip), vehicle: water 97 % of control | endpoint: mean survival time, dose: 400.0 mg/kg/injection, schedule: Q01DX009 (ip), vehicle: water 100 % of control | endpoint: mean survival time, dose: 400.0 mg/kg/injection, schedule: Q04DX003 (ip), vehicle: water 94 % of control

Cc1ccc(S(=O)(=O)OCC2OC(n3cnc4c(N)ncnc43)C(OS(=O)(=O)c3ccc(C)cc3)C2N=[N+]=[N-])cc1 (centres undefined)
inactive: endpoint: mean survival time, dose: 100.0 mg/kg/injection, schedule: Q01DX005 (ip), vehicle: saline 106 % of control | endpoint: mean survival time, dose: 200.0 mg/kg/injection, schedule: Q01DX005 (ip), vehicle: saline 92 % of control

CCN(CC)CCOC(=O)Cc1ccccc1
inactive: [10] 94 % of control | [1] 97 % of control | endpoint: mean survival time, dose: 200.0 mg/kg/injection, schedule: Q01DX009 (ip), vehicle: Klucel (hydroxypropylcellulose) (HPC) 104 % of control | [2] 100 % of control | endpoint: mean survival time, dose: 400.0 mg/kg/injection, schedule: Q01DX009 (ip), vehicle: Klucel (hydroxypropylcellulose) (HPC) 105 % of control | [3] 100 % of control

COc1ccccc1NC(=O)NCc1ccco1
inactive: endpoint: mean survival time, dose: 77.0 mg/kg/injection, schedule: Q01DX Z (ip), vehicle: methylcellulose (MC) 90 % of control | endpoint: mean survival time, dose: 116.0 mg/kg/injection, schedule: Q01DX Z (ip), vehicle: methylcellulose (MC) 103 % of control | endpoint: mean survival time, dose: 175.0 mg/kg/injection, schedule: Q01DX Z (ip), vehicle: methylcellulose (MC) 105 % of control

COc1ccc2c[n+](C)c3c4cc(OC)c(OC)cc4ccc3c2c1
inactive: endpoint: mean survival time, dose: 6.25 mg/kg/injection, schedule: Q04DX003 (ip), vehicle: saline with Tween-80 105 % of control | endpoint: mean survival time, dose: 12.5 mg/kg/injection, schedule: Q04DX003 (ip), vehicle: saline with Tween-80 105 % of control | endpoint: mean survival time, dose: 25.0 mg/kg/injection, schedule: Q04DX003 (ip), vehicle: saline with Tween-80 105 % of control

CC(OC(=O)c1ccccc1C(=O)O)c1ccccc1 (centres undefined)
inactive: [7] 93 % of control | [8] 96 % of control | [9] 96 % of control

NC(=O)c1ccccc1OC(=O)Nc1ccccc1
inactive: endpoint: mean survival time, dose: 50.0 mg/kg/injection, schedule: Q01DX009 (ip), vehicle: Klucel (hydroxypropylcellulose) (HPC) 103 % of control | [10] 101 % of control | endpoint: mean survival time, dose: 100.0 mg/kg/injection, schedule: Q04DX002 (ip), vehicle: Klucel (hydroxypropylcellulose) (HPC) 89 % of control | endpoint: mean survival time, dose: 200.0 mg/kg/injection, schedule: Q04DX002 (ip), vehicle: Klucel (hydroxypropylcellulose) (HPC) 99 % of control

CN(CCO)Cc1ccc(Cl)cc1
inactive: endpoint: mean survival time, dose: 150.0 mg/kg/injection, schedule: Q01DX015 (ip), vehicle: saline 91 % of control

NC1C2C3CCC(C(C(=O)O)C3C(=O)O)C12 (centres undefined)
inactive: [4] 89 % of control | [5] 110 % of control | [6] 100 % of control

CN(C)C=Nc1c(I)cc(I)c(CCC(=O)O)c1I
inactive: endpoint: mean survival time, dose: 100.0 mg/kg/injection, schedule: Q01DX001 (ip), vehicle: saline 96 % of control | endpoint: mean survival time, dose: 200.0 mg/kg/injection, schedule: Q01DX001 (ip), vehicle: saline 96 % of control | endpoint: mean survival time, dose: 400.0 mg/kg/injection, schedule: Q01DX001 (ip), vehicle: saline 94 % of control
